Experiments:
[1] = target: T1, recombinant human ALK5 (TGF-βR1) protein (Homo sapiens, UniProt P36897); test: Biochemical ALK5 (TGF-βR1) assay to measure pKi (LANCE Ultra ULight kinase assay); conditions: apparent pKi, converted from pIC50 using the Cheng-Prusoff equation
T1 construct: purchased Life Technologies PR9075A
T1 sequence (P36897 34-503): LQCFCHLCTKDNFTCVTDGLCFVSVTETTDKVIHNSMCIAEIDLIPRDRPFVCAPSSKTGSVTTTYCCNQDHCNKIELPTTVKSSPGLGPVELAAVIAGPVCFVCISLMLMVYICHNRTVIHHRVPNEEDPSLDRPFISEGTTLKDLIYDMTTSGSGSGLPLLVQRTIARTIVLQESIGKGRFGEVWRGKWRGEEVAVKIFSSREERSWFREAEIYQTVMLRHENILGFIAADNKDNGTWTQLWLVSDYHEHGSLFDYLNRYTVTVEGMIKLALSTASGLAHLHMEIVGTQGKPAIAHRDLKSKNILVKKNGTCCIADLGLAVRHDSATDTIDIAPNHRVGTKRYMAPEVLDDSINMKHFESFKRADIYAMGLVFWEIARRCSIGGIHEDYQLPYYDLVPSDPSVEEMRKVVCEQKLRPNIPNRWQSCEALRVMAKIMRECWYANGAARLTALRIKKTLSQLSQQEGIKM
Outline: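 TR-FRET kinase format: compound dose range 10 μM–25 pM equilibrated 60 min with human ALK5 and ULight-labelled topoisomerase 2α peptide in HEPES/MgCl2 buffer pH 7.5 with DTT. Reaction started with ATP (125 μM stock, 5× final), 60 min at 37° C, stopped with EDTA/Eu-anti-phospho antibody; pKi derived from pIC50 via Cheng-Prusoff.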

[2] = tested on: TGF-β-stimulated SMAD3 phosphorylation in BEAS-2B cells; test: Cellular ALK5 potency assay, inhibition of TGF-β stimulated pSMAD3 formation in BEAS-2B cells; assay type: cell-based; conditions: Homo sapiens, inhibition of TGF-β (10 ng/mL) stimulated pSMAD3 formation, 1 hour compound incubation, read-out: BEAS2B pIC50 (converted)
Outline: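 Phospho-SMAD3 was quantified by AlphaLISA in lysates of human lung epithelial BEAS-2B cells. Compound was added 1 h (37 °C, HEPES/BSA-supplemented HBSS) before a 30 min challenge with 10 ng/mL TGF-β. Values are pIC50 relative to stimulated cells without compound.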

Structure (SMILES): CNC1CCN(c2cnc3ccc(-c4c[nH]nc4-c4cc(Cl)c(F)cc4F)nc3c2)C1 (stereo not drawn) [Compound 6-35, 1-[6-[3-(5-chloro-2,4-difluoro-phenyl)-1H-pyrazol-4-yl]-1,5-naphthyridin-3-yl]-N-methyl-pyrrolidin-3-amine]
- Ki [1]: ≤ 0.0316 nM
- IC50 [2]: ≤ 20 nM

Structure (SMILES): NCCN1CCN(c2cnc3ccc(-c4c[nH]nc4-c4cc(Cl)c(F)cc4F)nc3c2)CC1 [Compound 6-36, 2-[4-[6-[3-(5-chloro-2,4-difluoro-phenyl)-1H-pyrazol-4-yl]-1,5-naphthyridin-3-yl]piperazin-1-yl]ethanamine]
- Ki [1]: 0.0398 to 0.316 nM
- IC50 [2]: 25.1 to 158 nM

Structure (SMILES): CC(C)N1CC[C@@H](N(C)c2cnc3ccc(-c4c[nH]nc4-c4cc(Cl)c(F)cc4F)nc3c2)C1 [Compound 6-37, (R)-6-(3-(5-chloro-2,4-difluorophenyl)-1H-pyrazol-4-yl)-N-(1-isopropylpyrrolidin-3-yl)-N-methyl-1,5-naphthyridin-3-amine]
- Ki [1]: 0.0398 to 0.316 nM
- IC50 [2]: 25.1 to 158 nM

Structure (SMILES): CNC(=O)[C@H]1CN(c2cnc3ccc(-c4c[nH]nc4-c4cc(Cl)c(F)cc4F)nc3c2)CCN1C(C)C [Compound 6-38, (2R)-4-[6-[3-(5-chloro-2,4-difluoro-phenyl)-1H-pyrazol-4-yl]-1,5-naphthyridin-3-yl]-1-isopropyl-N-methyl-piperazine-2-carboxamide]
- Ki [1]: 0.0398 to 0.316 nM
- IC50 [2]: 25.1 to 158 nM

Structure (SMILES): CC(C)NCCN1CCN(c2cnc3ccc(-c4c[nH]nc4-c4cc(Cl)c(F)cc4F)nc3c2)CC1 [Compound 6-39, N-[2-[4-[6-[3-(5-chloro-2,4-difluoro-phenyl)-1H-pyrazol-4-yl]-1,5-naphthyridin-3-yl]piperazin-1-yl]ethyl]propan-2-amine]
- Ki [1]: 0.0398 to 0.316 nM
- IC50 [2]: 25.1 to 158 nM

Structure (SMILES): CNCCn1ccc(-c2cnc3ccc(-c4c[nH]nc4-c4cc(Cl)c(F)cc4F)nc3c2)n1 [Compound 6-40, 2-(3-(6-(3-(5-chloro-2,4-difluorophenyl)-1H-pyrazol-4-yl)-1,5-naphthyridin-3-yl)-1H-pyrazol-1-yl)-N-methylethan-1-amine]
- Ki [1]: ≤ 0.0316 nM
- IC50 [2]: ≤ 20 nM

Structure (SMILES): NCCn1cc(-c2cnc3ccc(-c4c[nH]nc4-c4cc(Cl)c(F)cc4F)nc3c2)cn1 [Compound 6-41, 2-[4-[6-[3-(5-chloro-2,4-difluoro-phenyl)-1H-pyrazol-4-yl]-1,5-naphthyridin-3-yl]pyrazol-1-yl]ethanamine]
- Ki [1]: ≤ 0.0316 nM
- IC50 [2]: 25.1 to 158 nM

Structure (SMILES): Fc1cc(F)c(-c2n[nH]cc2-c2ccc3ncc(-c4cnn(CC5CNC5)c4)cc3n2)cc1Cl [Compound 6-42, 7-[1-(azetidin-3-ylmethyl)pyrazol-4-yl]-2-[3-(5-chloro-2,4-difluoro-phenyl)-1H-pyrazol-4-yl]-1,5-naphthyridine]
- Ki [1]: 0.0398 to 0.316 nM
- IC50 [2]: 25.1 to 158 nM

Structure (SMILES): CN1CC=C(c2cnc3ccc(-c4c[nH]nc4-c4cc(Cl)c(F)cc4F)nc3c2)C1 [Compound 6-43, 2-(3-(5-chloro-2,4-difluorophenyl)-1H-pyrazol-4-yl)-7-(1-methyl-2,5-dihydro-1H-pyrrol-3-yl)-1,5-naphthyridine]
- Ki [1]: 0.0398 to 0.316 nM
- IC50 [2]: ≤ 20 nM

Structure (SMILES): CC(C)N1CC=C(c2cnc3ccc(-c4c[nH]nc4-c4cc(Cl)c(F)cc4F)nc3c2)C1 [Compound 6-44, 2-[3-(5-chloro-2,4-difluoro-phenyl)-1H-pyrazol-4-yl]-7-(1-isopropyl-2,5-dihydropyrrol-3-yl)-1,5-naphthyridine]
- Ki [1]: 0.0398 to 0.316 nM
- IC50 [2]: ≤ 20 nM

Structure (SMILES): Fc1cc(F)c(-c2n[nH]cc2-c2ccc3ncc(-c4cnn5c4CNCC5)cc3n2)cc1Cl [Compound 6-45, 2-(3-(5-chloro-2,4-difluorophenyl)-1H-pyrazol-4-yl)-7-(4,5,6,7-tetrahydropyrazolo[1,5-a]pyrazin-3-yl)-1,5-naphthyridine]
- Ki [1]: 0.0398 to 0.316 nM
- IC50 [2]: 25.1 to 158 nM

Structure (SMILES): Fc1cc(F)c(-c2n[nH]cc2-c2ccc3ncc(-c4nc5n(n4)CCNC5)cc3n2)cc1Cl [Compound 6-46, 2-[3-(5-chloro-2,4-difluoro-phenyl)-1H-pyrazol-4-yl]-7-(5,6,7,8-tetrahydro-[1,2,4]triazolo[1,5-a]pyrazin-2-yl)-1,5-naphthyridine]
- Ki [1]: 0.0398 to 0.316 nM
- IC50 [2]: 25.1 to 158 nM

Structure (SMILES): Fc1cc(F)c(-c2n[nH]cc2-c2ccc3ncc(-c4nnn5c4NCCC5)cc3n2)cc1Cl [Compound 6-47, 2-[3-(5-chloro-2,4-difluoro-phenyl)-1H-pyrazol-4-yl]-7-(4,5,6,7-tetrahydrotriazolo[1,5-a]pyrimidin-3-yl)-1,5-naphthyridine]
- Ki [1]: 0.398 to 3.16 nM
- IC50 [2]: 25.1 to 158 nM

Structure (SMILES): Fc1cc(F)c(-c2n[nH]cc2-c2ccc3ncc(-c4cnc5n4CCNC5)cc3n2)cc1Cl [Compound 6-48, 2-[3-(5-chloro-2,4-difluoro-phenyl)-1H-pyrazol-4-yl]-7-(5,6,7,8-tetrahydroimidazo[1,2-a]pyrazin-3-yl)-1,5-naphthyridine]
- Ki [1]: 0.398 to 3.16 nM
- IC50 [2]: 25.1 to 158 nM

Structure (SMILES): Fc1cc(F)c(-c2n[nH]cc2-c2ccc3ncc(-c4ncn5c4CNCC5)cc3n2)cc1Cl [Compound 6-49, 2-[3-(5-chloro-2,4-difluoro-phenyl)-1H-pyrazol-4-yl]-7-(5,6,7,8-tetrahydroimidazo[1,5-a]pyrazin-1-yl)-1,5-naphthyridine]
- Ki [1]: 0.0398 to 0.316 nM
- IC50 [2]: 25.1 to 158 nM

Structure (SMILES): Fc1cc(F)c(-c2n[nH]cc2-c2ccc3ncc(-c4nc(C(F)(F)F)n5c4CNCC5)cc3n2)cc1Cl [Compound 6-50, 2-[3-(5-chloro-2,4-difluoro-phenyl)-1H-pyrazol-4-yl]-7-[3-(trifluoromethyl)-5,6,7,8-tetrahydroimidazo[1,5-a]pyrazin-1-yl]-1,5-naphthyridine]
- Ki [1]: 3.98 to 31.6 nM
- IC50 [2]: 25.1 to 158 nM

Structure (SMILES): Fc1cc(F)c(-c2n[nH]cc2-c2ccc3ncc(-c4ncc5n4CCNC5)cc3n2)cc1Cl [Compound 6-51, 2-[3-(5-chloro-2,4-difluoro-phenyl)-1H-pyrazol-4-yl]-7-(5,6,7,8-tetrahydroimidazo[1,5-a]pyrazin-3-yl)-1,5-naphthyridine]
- Ki [1]: 0.398 to 3.16 nM
- IC50 [2]: 25.1 to 158 nM

Structure (SMILES): Fc1cc(F)c(-c2n[nH]cc2-c2ccc3ncc(-c4cn5c(n4)CNCC5)cc3n2)cc1Cl [Compound 6-52, 2-[3-(5-chloro-2,4-difluoro-phenyl)-1H-pyrazol-4-yl]-7-(5,6,7,8-tetrahydroimidazo[1,2-a]pyrazin-2-yl)-1,5-naphthyridine]
- Ki [1]: 0.0398 to 0.316 nM
- IC50 [2]: 25.1 to 158 nM

Structure (SMILES): Fc1cc(F)c(-c2n[nH]cc2-c2ccc3ncc(-c4[nH]nc5c4CCNC5)cc3n2)cc1Cl [Compound 6-53, 2-[3-(5-chloro-2,4-difluoro-phenyl)-1H-pyrazol-4-yl]-7-(4,5,6,7-tetrahydro-2H-pyrazolo[3,4-c]pyridin-3-yl)-1,5-naphthyridine]
- Ki [1]: 0.0398 to 0.316 nM
- IC50 [2]: 25.1 to 158 nM

Structure (SMILES): Fc1cc(F)c(-c2n[nH]cc2-c2ccc3ncc(-c4cnc5n4CCN5)cc3n2)cc1Cl [Compound 6-54, 2-[3-(5-chloro-2,4-difluoro-phenyl)-1H-pyrazol-4-yl]-7-(6,7-dihydro-5H-imidazo[1,2-a]imidazol-3-yl)-1,5-naphthyridine]
- Ki [1]: 0.0398 to 0.316 nM
- IC50 [2]: 25.1 to 158 nM

Structure (SMILES): Fc1cc(F)c(-c2n[nH]cc2-c2ccc3ncc(-c4ncn5c4NCC5)cc3n2)cc1Cl [Compound 6-55, 2-[3-(5-chloro-2,4-difluoro-phenyl)-1H-pyrazol-4-yl]-7-(2,3-dihydro-1H-imidazo[1,5-a]imidazol-7-yl)-1,5-naphthyridine]
- Ki [1]: 0.0398 to 0.316 nM
- IC50 [2]: 25.1 to 158 nM

Source: patent US11730720B2, “ALK5 inhibitors” (THERAVANCE BIOPHARMA R&D IP, LLC, priority 2018, dated 2023)
